Data on 17 compounds can be found in patent US11453683B1, “KRas G12D inhibitors” (Mirati Therapeutics, Inc., priority 2019, dated 2022).

This assay has as its system KRas G12D-mediated phosphorylation of ERK. Kind of assay: Inhibition of KRas G12D-mediated phosphorylation of ERK in AGS cells. The class given is cell-based. Particulars: Homo sapiens; AGS cells expressing G12D, 3 hours, phospho-ERK normalized to GAPDH. On the procedure: Cells were plated in tissue culture treated 96 well plates at a density of 40,000 cells/well and allowed to attach for 12-14 hours. Diluted compounds were then added in a final concentration of 0.5% DMSO. After 3 hours, the medium was removed, 150 μL of 4.0% formaldehyde was added and the plates incubated at room temperature for 20 minutes. The plates were washed with PBS, and permeabilized with 150 μL of ice cold 100% methanol for 10 minutes. Non-specific antibody binding to the plates was blocked using 100 μL Licor blocking buffer (Li-Cor Biotechnology, Lincoln Nebr.) for 1 hour at room temperature.
The amount of phospho-ERK was determined using an antibody specific for the phosphorylated form of ERK and compared to the amount of GAPDH. Primary antibodies used for the detection were added as follows: Phospho-ERK (Cell Signaling cs-9101) diluted 1:500 and GAPDH (Millipore MAB374) diluted 1:5000 in Licor block+0.05% Tween 20. The plates were incubated for 2 hours at room temperature. The plates were washed with PBS+0.05% Tween 20.
Secondary antibodies used to visualize primary antibodies were added as follows: Anti-rabbit-680 diluted 1:1000 and Anti-mouse-800 diluted 1:1000 both in Licor block+0.05% TweeN2O, and were incubated for 1 hour at room temperature. The plates were washed with PBS+0.05% Tween 20. A 100 μL aliquot of PBS was added to each well and the plates were read on a Li-Cor Odyssey CLX plate reader.
The phospho-ERK (Thr202/Tyr204 signal was normalized to the GAPDH signal for each well and percent of DMSO control values were calculated. IC50 values were generated using a 4-parameter fit of the dose response curve

Bounds are passed on as bounds.

`Oc1ccc(OC(F)(F)F)c(-c2ncc3c(N4C[C@H]5CC[C@@H](C4)N5)nc(OCC45CCCN4CCC5)nc3c2F)c1` [Example 341, 3-(4-((1R,5S)-3,8-diazabicyclo[3.2.1]octan-3-yl)-8-fluoro-2-((tetrahydro-1H-pyrrolizin-7a(5H)-yl)methoxy)pyrido[4,3-d]pyrimidin-7-yl)-4-(trifluoromethoxy)phenol] showed an IC50 of 0.837 µM.
Regarding `CN1CC(COc2nc(N3C[C@H]4CC[C@@H](C3)N4)c3cnc(-c4cccc5cccc(Cl)c45)c(F)c3n2)CC1=O` (stereo partly drawn) [Example 131, 4-(((4-((1R,5S)-3,8-diazabicyclo[3.2.1]octan-3-yl)-7-(8-chloronaphthalen-1-yl)-8-fluoropyrido[4,3-d]pyrimidin-2-yl)oxy)methyl)-1-methylpyrrolidin-2-one], the IC50 is above 16.7 µM.
The figure for `Fc1c(-c2c3ccccc3cc3[nH]ncc23)ncc2c(N3C[C@H]4CC[C@@H](C3)N4)nc(OCC34CCCN3CCC4)nc12` [Example 257, 4-(4-((1R,5S)-3,8-diazabicyclo[3.2.1]octan-3-yl)-8-fluoro-2-((hexahydro-1H-pyrrolizin-7a-yl)methoxy)pyrido[4,3-d]pyrimidin-7-yl)-1H-benzo[f]indazole] is 0.531 µM; for `CN1CC[C@@H](COc2nc(N3C[C@H]4CC[C@@H](C3)N4)c3cnc(-c4cccc5cccc(Cl)c45)c(F)c3n2)C1` [Example 356, 4-((1R,5S)-3,8-diazabicyclo[3.2.1]octan-3-yl)-7-(8-chloronaphthalen-1-yl)-8-fluoro-2-(((R)-1-methylpyrrolidin-3-yl)methoxy)pyrido[4,3-d]pyrimidine] it is 11.9 µM.
Regarding `CN1CCC[C@H]1COc1nc(N2C[C@H]3CC[C@@H](C2)N3)c2cnc(-c3cc(O)cc4cccc(Cl)c34)c(F)c2n1` [Example 63, 4-(4-((1R,5S)-3,8-diazabicyclo[3.2.1]octan-3-yl)-8-fluoro-2-(((S)-1-methylpyrrolidin-2-yl)methoxy)pyrido[4,3-d]pyrimidin-7-yl)-5-chloronaphthalen-2-ol], the IC50 is 0.187 µM.
In the case of `OCCOc1nc(N2C[C@H]3CC[C@@H](C2)N3)c2cnc(-c3cc(O)cc4ccccc34)c(F)c2n1` [Example 69, 4-(4-((1R,5S)-3,8-diazabicyclo[3.2.1]octan-3-yl)-8-fluoro-2-(2-hydroxyethoxy)pyrido[4,3-d]pyrimidin-7-yl)naphthalen-2-ol] it was above 16.7 µM.
As to `Cc1cccc2cccc(-c3ncc4c(N5C[C@H]6CC[C@@H](C5)N6)nc(OCC56CCCN5CCC6)nc4c3F)c12` [Example 334, 4-((1R,5S)-3,8-diazabicyclo[3.2.1]octan-3-yl)-8-fluoro-7-(8-methylnaphthalen-1-yl)-2-((tetrahydro-1H-pyrrolizin-7a(5H)-yl)methoxy)pyrido[4,3-d]pyrimidine], the midpoint of inhibition, the IC50, lay at 2.91 µM.
The figure for `Fc1c(-c2cccc3cccc(Cl)c23)ncc2c(N3C[C@H]4CC[C@@H](C3)N4)nc(OCCCN3C[C@@H]4C[C@H]3CO4)nc12` [Example 103, (1S,4S)-5-(3-((4-((1R,5S)-3,8-diazabicyclo[3.2.1]octan-3-yl)-7-(8-chloronaphthalen-1-yl)-8-fluoropyrido[4,3-d]pyrimidin-2-yl)oxy)propyl)-2-oxa-5-azabicyclo[2.2.1]heptane] is above 16.7 µM.
`Oc1cc(-c2ncc3c(N4C[C@H]5CC[C@@H](C4)N5)nc(OC[C@@]45CCCN4C[C@H](F)C5)nc3c2F)c2c(F)cccc2c1` [Example 282, 4-(4-((1R,5S)-3,8-diazabicyclo[3.2.1]octan-3-yl)-8-fluoro-2-(((2R,7aS)-2-fluorohexahydro-1H-pyrrolizin-7a-yl)methoxy)pyrido[4,3-d]pyrimidin-7-yl)-5-fluoronaphthalen-2-ol] had a half-maximal inhibitory concentration (IC50) of 0.0049 µM.
The figure for `Oc1cc(-c2ncc3c(N4C[C@H]5CC[C@@H](C4)N5)nc(OCCC(F)(F)F)nc3c2F)c2ccccc2c1` [Example 81, 4-(4-((1R,5S)-3,8-diazabicyclo[3.2.1]octan-3-yl)-8-fluoro-2-(3,3,3-trifluoropropoxy)pyrido[4,3-d]pyrimidin-7-yl)naphthalen-2-ol] is 8.29 µM.
In the case of `Cc1nccn1CCOc1nc(N2CC3CCC(C2)N3)c2cnc(-c3cc(O)cc4ccccc34)c(F)c2n1` [Example 84, 4-(4-((1R,5S)-3,8-diazabicyclo[3.2.1]octan-3-yl)-8-fluoro-2-(2-(2-methyl-1H-imidazol-1-yl)ethoxy)pyrido[4,3-d]pyrimidin-7-yl)naphthalen-2-ol] it was 5.72 µM; in that of `CN1C[C@H](OC(=O)NCCOCc2ccc(O)cc2)C[C@H]1COc1nc(N2C[C@H]3CC[C@@H](C2)N3)c2cnc(-c3cccc4cccc(Cl)c34)c(F)c2n1` [Example 260, (3R,5S)-5-(((4-((1R,5S)-3,8-diazabicyclo[3.2.1]octan-3-yl)-7-(8-chloronaphthalen-1-yl)-8-fluoropyrido[4,3-d]pyrimidin-2-yl)oxy)methyl)-1-methylpyrrolidin-3-yl (2-((4-hydroxybenzyl)oxy)ethyl)carbamate], above 16.7 µM; in that of `Cn1ccnc1CCOc1nc(N2C[C@H]3C[C@@H](O)[C@@H](C2)N3)c2cnc(-c3cccc4cccc(Cl)c34)c(F)c2n1` [Example 173, (1R,5R,6R)-3-(7-(8-chloronaphthalen-1-yl)-8-fluoro-2-(2-(1-methyl-1H-imidazol-2-yl)ethoxy)pyrido[4,3-d]pyrimidin-4-yl)-3,8-diazabicyclo[3.2.1]octan-6-ol], 10.5 µM.
In turn, `CCc1cccc2cc(O)cc(-c3ncc4c(N5C[C@H]6CC[C@@H](C5)N6)nc(OC[C@]56CCCN5[C@@H](COC(=O)NC)CC6)nc4c3F)c12` [Example 433, ((3R,7aR)-7a-(((4-((1R,5S)-3,8-diazabicyclo[3.2.1]octan-3-yl)-7-(8-ethyl-3-hydroxynaphthalen-1-yl)-8-fluoropyrido[4,3-d]pyrimidin-2-yl)oxy)methyl)hexahydro-1H-pyrrolizin-3-yl)methyl methylcarbamate] registered an IC50 of 0.0432 µM.
The compound `C[C@H]1C[C@H]1c1ccccc1-c1ncc2c(N3C[C@H]4CC[C@@H](C3)N4)nc(OCC34CCCN3CCC4)nc2c1F` [Example 287, 4-((1R,5S)-3,8-diazabicyclo[3.2.1]octan-3-yl)-8-fluoro-2-((hexahydro-1H-pyrrolizin-7a-yl)methoxy)-7-(2-((1R,2S)-2-methylcyclopropyl)phenyl)pyrido[4,3-d]pyrimidine] came in with a half-inhibitory concentration (IC50) of 8.07 µM.
The figure for `Cc1c(Cl)cccc1-c1ncc2c(N3C[C@H]4CC[C@@H](C3)N4)nc(OCC34CCCN3CCC4)nc2c1F` [Example 274, 4-((1R,5S)-3,8-diazabicyclo[3.2.1]octan-3-yl)-7-(3-chloro-2-methylphenyl)-8-fluoro-2-((hexahydro-1H-pyrrolizin-7a-yl)methoxy)pyrido[4,3-d]pyrimidine] is 4.71 µM.
`C#Cc1cccc2cc(O)cc(-c3ncc4c(N5C[C@H]6CC[C@@H](C5)N6)nc(OCC56CCCN5CCC6)nc4c3F)c12` [Example 185, 4-(4-((1R,5S)-3,8-diazabicyclo[3.2.1]octan-3-yl)-8-fluoro-2-((hexahydro-1H-pyrrolizin-7a-yl)methoxy)pyrido[4,3-d]pyrimidin-7-yl)-5-ethynylnaphthalen-2-ol] registered an IC50 of 0.0071 µM.

For orientation: IC50 means the concentration that gives 50% inhibition. Read a low IC50 as inhibition by little substance.
